Results as given in patent publication US5510379A, “Sulfonate ACAT inhibitors” (priority 1994, dated 1996).
Like-named read-outs stand apart in the source and are kept apart here.

Assays:
[1] = molecular target: T1, acyl-CoA: cholesterol acyltransferase (ACAT) (Rattus norvegicus, UniProt Q7TQM4); assay: in vitro ACAT inhibition test in rat liver microsomes (LAI); format: biochemical
T1 construct: tissue preparation containing rat liver microsomes; from tissue; host or cells: rat liver microsomes
T1 sequence (Q7TQM4 1-524): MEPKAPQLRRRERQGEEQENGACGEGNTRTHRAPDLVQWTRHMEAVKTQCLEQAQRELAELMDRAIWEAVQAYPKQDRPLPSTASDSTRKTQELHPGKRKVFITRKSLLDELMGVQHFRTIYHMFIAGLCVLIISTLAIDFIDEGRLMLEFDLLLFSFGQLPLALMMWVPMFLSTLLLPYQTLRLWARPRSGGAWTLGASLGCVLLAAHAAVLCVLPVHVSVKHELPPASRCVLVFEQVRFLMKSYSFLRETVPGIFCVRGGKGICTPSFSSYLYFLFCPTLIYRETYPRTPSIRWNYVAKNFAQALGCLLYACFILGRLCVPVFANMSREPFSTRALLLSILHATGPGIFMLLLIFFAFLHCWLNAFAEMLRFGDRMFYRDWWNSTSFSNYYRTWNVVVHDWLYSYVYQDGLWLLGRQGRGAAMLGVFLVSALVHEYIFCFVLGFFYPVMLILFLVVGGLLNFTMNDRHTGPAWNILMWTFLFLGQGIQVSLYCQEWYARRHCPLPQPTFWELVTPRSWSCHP
Procedure: The ability of representative compounds of the present invention to inhibit ACAT was measured using an in vitro test more fully described in F.J. Field and R.G. Salone, Biochemica et Biophysica Acta, 772:557-570 (1982). The test assesses the ability of a test compound to inhibit the acylation of cholesterol by oleic acid by measuring the amount of radiolabeled cholesterol oleate formed from radiolabeled oleic acid in a tissue preparation containing rat liver microsomes (designated LAI).

male Sprague-Dawley rats = assay: in vivo screen APCC in cholesterol-fed rats; settings: Rattus norvegicus, po, 30 mg/kg by gavage, high fat, high cholesterol diet overnight, versus vehicle and diet only, read-out: APCC percent change in total cholesterol (%TC) from control animals
Text: In an in vivo screen designated APCC, male Sprague-Dawley rats (200-225 g body weight) were randomly divided into treatment groups and dosed at 4 PM with either vehicle (CMC/Tween) or suspensions of invention compounds in vehicle. The normal chow diet was then replaced with a high fat, high cholesterol diet (5.5% peanut oil, 1.5% cholesterol, and 0.5% cholic acid). The rats consumed this diet ad libitum during the night and were sacrificed at 8 AM to obtain blood samples for cholesterol analysis using standard procedures. Statistical differences between mean cholesterol values for the same vehicle were determined using analysis of variance followed by Fisher's least significant test. The results of this trial for representative compounds of the present invention also appear in Table I as the percent change in total cholesterol (%TC) from control animals given vehicle and diet only. All compounds in the APCC test reported in Table 1 were administered by gavage at 30 mg/kg.

[2] = rat liver microsomes, formation of radiolabeled cholesterol oleate from radiolabeled oleic acid, read-out: LAI IC50

| SMILES | IC50 [1, 2] | change in vivo at 30 mg/kg (male Sprague-Dawley rats) | IC50 [1] |
| --- | --- | --- | --- |
| CC(C)c1cc(C(C)C)c(NC(=O)CS(=O)(=O)Oc2c(C(C)C)cccc2C(C)C)c(C(C)C)c1 [Example 6] | 1660 nM | -31% | – |
| CC(C)c1cccc(C(C)C)c1NC(=O)CS(=O)(=O)Oc1c(C(C)C)cccc1C(C)C [Example 10, 2.6-Diisopropylphenyl N-(2,6-diisopropylphenyl)carbamoylmethylsulfonate] | 27 nM | -42% | – |
| CSc1ccc(CN(C(=O)CS(=O)(=O)Oc2c(C(C)C)cc(C(C)C)cc2C(C)C)C(C)C)cc1 [Example 7, 2,4,6-Triisopropylphenyl N-isopropyl-N-(4-thiomethylphenylmethyl)carbamoylmethyl sulfonate] | 3600 nM | -17% | – |
| CC(C)c1cccc(C(C)C)c1OC(=O)CS(=O)(=O)Oc1c(C(C)C)cccc1C(C)C [Example 8, 2,6-Diisopropylphenyl (2,6-diisopropylphenoxycarbonyl)methylsulfonate] | 1500 nM | -21% | – |
| CC(C)c1cc(C(C)C)c(OS(=O)(=O)CC(=O)N(Cc2ccccc2)Cc2ccccc2)c(C(C)C)c1 [Example 1, 2,4,6-Triisopropylphenyl N,N-dibenzylcarbamoylmethylsulfonate] | > 5000 nM | -7% | – |
| CCCCCCCCCCCCNC(=O)CS(=O)(=O)Oc1c(C(C)C)cccc1C(C)C [Example 3, 2,6-Diisopropylphenyl N-dodecyl carbamoylmethyl sulfonate] | 3000 nM | -3% | – |
| CC(C)c1cccc(C(C)C)c1OS(=O)(=O)CC(=O)NC(c1ccccc1)c1ccccc1 [Example 4, 2,6-Diisopropylphenyl N-diphenylmethylcarbamoylmethyl sulfonate] | 1800 nM | -43% | – |
| CC(C)c1cccc(C(C)C)c1OS(=O)(=O)CC(=O)O [Example 5, 2,6-Diisopropylphenoxysulfonyl acetic acid] | – | -31% | > 50000 nM |
| CC(C)c1cc(C(C)C)c(OS(=O)(=O)CC(=O)NC(c2ccccc2)c2ccccc2)c(C(C)C)c1 [Example 2, 2,4,6-Triisopropylphenyl N-diphenylmethylcarbamoylmethyl sulfonate] | 790 nM | -19% | – |
| CC(C)c1cc(C(C)C)c(OS(=O)(=O)CC(=O)Nc2c(C(C)C)cccc2C(C)C)c(C(C)C)c1 [Example 9] | 7 nM | -61% | – |
